Laboratory results as given in ChEMBL document CHEMBL3885881, “DrugMatrix”.

Species: Rattus norvegicus
Assay: DrugMatrix - Regimen: Daily Repeat
Assay type: toxicity, organism-based, Sprague-Dawley
Design: regimen Daily Repeat, gender Male, age 6-8 weeks
Conditions: in vivo, po, route oral GAVAGE, vehicle 100 % WATER; for ABSOLUTE BASOPHIL / ABSOLUTE EOSINOPHIL / ABSOLUTE LYMPHOCYTE / ABSOLUTE MONOCYTE / ABSOLUTE SEGMENTED NEUTROPHIL / BASOPHIL / EOSINOPHIL / ERYTHROCYTE COUNT / HEMATOCRIT / HEMOGLOBIN / LEUKOCYTE COUNT / LYMPHOCYTE / MEAN CORPUSCULAR HEMOGLOBIN / MEAN CORPUSCULAR HEMOGLOBIN CONCENTRATION / MEAN CORPUSCULAR VOLUME / MONOCYTE / NEUTROPHIL / NUCLEATED RED BLOOD CELLS / PLATELET COUNT: tissue Blood; for ALANINE AMINOTRANSFERASE / ALKALINE PHOSPHATASE / ASPARTATE AMINOTRANSFERASE / BLOOD UREA NITROGEN / CARBON DIOXIDE / CHLORIDE / CHOLESTEROL / CREATINE PHOSPHOKINASE / CREATININE / GLUCOSE / LACTATE DEHYDROGENASE / LIPASE / PHOSPHORUS / POTASSIUM / SODIUM / TOTAL BILIRUBIN / TOTAL PROTEIN / URIC ACID: tissue Plasma
[1] = 0 mg/kg, 72 h, dose level Control, time 3 day
[2] = 0 mg/kg, 120 h, dose level Control, time 5 day
[3] = 10 mg/kg, 72 h, dose level Low, time 3 day
[4] = 10 mg/kg, 120 h, dose level Low, time 5 day

SMILES: Cn1c(=O)c2[nH]cnc2n(C)c1=O.O [THEOPHYLLINE]
- ABSOLUTE BASOPHIL [1]: 0 CELLS/uL
- ABSOLUTE EOSINOPHIL [1]: 168.33 CELLS/uL
- ABSOLUTE LYMPHOCYTE [1]: 13654.17 CELLS/uL
- ABSOLUTE MONOCYTE [1]: 121 CELLS/uL
- ABSOLUTE SEGMENTED NEUTROPHIL [1]: 1223.17 CELLS/uL
- BASOPHIL [1]: 0%
- EOSINOPHIL [1]: 1.17%
- ERYTHROCYTE COUNT [1]: 5.7 x10E6/uL
- HEMATOCRIT [1]: 35.33%
- HEMOGLOBIN [1]: 13.97 G/DL
- LEUKOCYTE COUNT [1]: 15.17 x10E3/uL
- LYMPHOCYTE [1]: 89.83%
- MEAN CORPUSCULAR HEMOGLOBIN [1]: 24.53 pg
- MEAN CORPUSCULAR HEMOGLOBIN CONCENTRATION [1]: 39.53 G/DL
- MEAN CORPUSCULAR VOLUME [1]: 62.05 fL
- MONOCYTE [1]: 0.83%
- NEUTROPHIL [1]: 8.17%
- NUCLEATED RED BLOOD CELLS [1]: 0 /100WBC
- PLATELET COUNT [1]: 1312.17 x10E3/uL
- ALANINE AMINOTRANSFERASE [1]: 50.83 u/L
- ALKALINE PHOSPHATASE [1]: 334.17 u/L
- ASPARTATE AMINOTRANSFERASE [1]: 82.17 u/L
- BLOOD UREA NITROGEN [1]: 15.5 mg/dL
- CARBON DIOXIDE [1]: 31.33 mmol/L
- CHLORIDE [1]: 99.83 MEQ/L
- CHOLESTEROL [1]: 76 mg/dL
- CREATINE PHOSPHOKINASE [1]: 272.17 u/L
- CREATININE [1]: 0.17 mg/dL
- GLUCOSE [1]: 143 mg/dL
- LACTATE DEHYDROGENASE [1]: 157.5 u/L
- LIPASE [1]: 9.33 u/L
- PHOSPHORUS [1]: 12.18 mg/dL
- POTASSIUM [1]: 6.78 MEQ/L
- SODIUM [1]: 143.9 MEQ/L
- TOTAL BILIRUBIN [1]: 0.22 mg/dL
- TOTAL PROTEIN [1]: 5.85 G/DL
- URIC ACID [1]: 1.7 mg/dL
- ABSOLUTE BASOPHIL [2]: 0 CELLS/uL
- ABSOLUTE EOSINOPHIL [2]: 0 CELLS/uL
- ABSOLUTE LYMPHOCYTE [2]: 13539.33 CELLS/uL
- ABSOLUTE MONOCYTE [2]: 177.67 CELLS/uL
- ABSOLUTE SEGMENTED NEUTROPHIL [2]: 2116.33 CELLS/uL
- BASOPHIL [2]: 0%
- EOSINOPHIL [2]: 0%
- ERYTHROCYTE COUNT [2]: 5.78 x10E6/uL
- HEMATOCRIT [2]: 36.13%
- HEMOGLOBIN [2]: 14.1 G/DL
- LEUKOCYTE COUNT [2]: 15.83 x10E3/uL
- LYMPHOCYTE [2]: 85.83%
- MEAN CORPUSCULAR HEMOGLOBIN [2]: 24.42 pg
- MEAN CORPUSCULAR HEMOGLOBIN CONCENTRATION [2]: 39 G/DL
- MEAN CORPUSCULAR VOLUME [2]: 62.55 fL
- MONOCYTE [2]: 0.83%
- NEUTROPHIL [2]: 13.33%
- NUCLEATED RED BLOOD CELLS [2]: 0.17 /100WBC
- PLATELET COUNT [2]: 1281.17 x10E3/uL
- ALANINE AMINOTRANSFERASE [2]: 55.5 u/L
- ALKALINE PHOSPHATASE [2]: 345 u/L
- ASPARTATE AMINOTRANSFERASE [2]: 92.5 u/L
- BLOOD UREA NITROGEN [2]: 16.5 mg/dL
- CARBON DIOXIDE [2]: 26.5 mmol/L
- CHLORIDE [2]: 103.5 MEQ/L
- CHOLESTEROL [2]: 78.5 mg/dL
- CREATINE PHOSPHOKINASE [2]: 381.5 u/L
- CREATININE [2]: 0.21 mg/dL
- GLUCOSE [2]: 161.83 mg/dL
- LACTATE DEHYDROGENASE [2]: 487.5 u/L
- LIPASE [2]: 10.17 u/L
- PHOSPHORUS [2]: 11.83 mg/dL
- POTASSIUM [2]: 6.4 MEQ/L
- SODIUM [2]: 146.95 MEQ/L
- TOTAL BILIRUBIN [2]: 0.22 mg/dL
- TOTAL PROTEIN [2]: 6.22 G/DL
- URIC ACID [2]: 1.83 mg/dL
- ABSOLUTE BASOPHIL [3]: 0 CELLS/uL
- ABSOLUTE EOSINOPHIL [3]: 319 CELLS/uL
- ABSOLUTE LYMPHOCYTE [3]: 14175 CELLS/uL
- ABSOLUTE MONOCYTE [3]: 161.67 CELLS/uL
- ABSOLUTE SEGMENTED NEUTROPHIL [3]: 1511 CELLS/uL
- BASOPHIL [3]: 0%
- EOSINOPHIL [3]: 2%
- ERYTHROCYTE COUNT [3]: 5.5 x10E6/uL
- HEMATOCRIT [3]: 34.43%
- HEMOGLOBIN [3]: 13.03 G/DL
- LEUKOCYTE COUNT [3]: 16.17 x10E3/uL
- LYMPHOCYTE [3]: 87.67%
- MEAN CORPUSCULAR HEMOGLOBIN [3]: 23.7 pg
- MEAN CORPUSCULAR HEMOGLOBIN CONCENTRATION [3]: 37.87 G/DL
- MEAN CORPUSCULAR VOLUME [3]: 62.57 fL
- MONOCYTE [3]: 1%
- NEUTROPHIL [3]: 9.33%
- NUCLEATED RED BLOOD CELLS [3]: 0 /100WBC
- PLATELET COUNT [3]: 1231 x10E3/uL
- ALANINE AMINOTRANSFERASE [3]: 51.33 u/L
- ALKALINE PHOSPHATASE [3]: 320.67 u/L
- ASPARTATE AMINOTRANSFERASE [3]: 113 u/L
- BLOOD UREA NITROGEN [3]: 12.33 mg/dL
- CARBON DIOXIDE [3]: 28.33 mmol/L
- CHLORIDE [3]: 101.33 MEQ/L
- CHOLESTEROL [3]: 94 mg/dL
- CREATINE PHOSPHOKINASE [3]: 788.33 u/L
- CREATININE [3]: 0.2 mg/dL
- GLUCOSE [3]: 138.33 mg/dL
- LACTATE DEHYDROGENASE [3]: 1127.33 u/L
- LIPASE [3]: 9.67 u/L
- PHOSPHORUS [3]: 11.8 mg/dL
- POTASSIUM [3]: 6.43 MEQ/L
- SODIUM [3]: 144.43 MEQ/L
- TOTAL BILIRUBIN [3]: 0.2 mg/dL
- TOTAL PROTEIN [3]: 5.7 G/DL
- URIC ACID [3]: 1.63 mg/dL
- ABSOLUTE BASOPHIL [4]: 0 CELLS/uL
- ABSOLUTE EOSINOPHIL [4]: 162 CELLS/uL
- ABSOLUTE LYMPHOCYTE [4]: 12014 CELLS/uL
- ABSOLUTE MONOCYTE [4]: 120 CELLS/uL
- ABSOLUTE SEGMENTED NEUTROPHIL [4]: 1804 CELLS/uL
- BASOPHIL [4]: 0%
- EOSINOPHIL [4]: 1%
- ERYTHROCYTE COUNT [4]: 5.5 x10E6/uL
- HEMATOCRIT [4]: 34.77%
- HEMOGLOBIN [4]: 13.6 G/DL
- LEUKOCYTE COUNT [4]: 14.1 x10E3/uL
- LYMPHOCYTE [4]: 85.67%
- MEAN CORPUSCULAR HEMOGLOBIN [4]: 24.7 pg
- MEAN CORPUSCULAR HEMOGLOBIN CONCENTRATION [4]: 39.13 G/DL
- MEAN CORPUSCULAR VOLUME [4]: 63.2 fL
- MONOCYTE [4]: 1%
- NEUTROPHIL [4]: 12.33%
- NUCLEATED RED BLOOD CELLS [4]: 0 /100WBC
- PLATELET COUNT [4]: 1229 x10E3/uL
- ALANINE AMINOTRANSFERASE [4]: 56 u/L
- ALKALINE PHOSPHATASE [4]: 334.33 u/L
- ASPARTATE AMINOTRANSFERASE [4]: 113.67 u/L
- BLOOD UREA NITROGEN [4]: 15 mg/dL
- CARBON DIOXIDE [4]: 23.33 mmol/L
- CHLORIDE [4]: 103.33 MEQ/L
- CHOLESTEROL [4]: 77.33 mg/dL
- CREATINE PHOSPHOKINASE [4]: 1028.67 u/L
- CREATININE [4]: 0.23 mg/dL
- GLUCOSE [4]: 151.33 mg/dL
- LACTATE DEHYDROGENASE [4]: 644.67 u/L
- LIPASE [4]: 9 u/L
- PHOSPHORUS [4]: 11.9 mg/dL
- POTASSIUM [4]: 5.95 MEQ/L
- SODIUM [4]: 143.77 MEQ/L
- TOTAL BILIRUBIN [4]: 0.2 mg/dL
- TOTAL PROTEIN [4]: 5.97 G/DL
- URIC ACID [4]: 1.33 mg/dL
